# Reference: patent publication US20260225997A1, “IONIZABLE AMINE LIPIDS” (Intellia Therapeutics, Inc., priority 2018, published 2026)
# Read-outs that look alike come from different tables or passages of the source.
# Legend:
# [1] = LNP average particle size and polydispersity by dynamic light scattering (Malvern Zetasizer); type: physicochemical
# Text: The LNPs have a size of about 1 to about 1,000 nm, about 10 to about 500 nm, about 20 to about 500 nm, in a sub-embodiment about 50 to about 400 nm, in a sub-embodiment about 50 to about 300 nm, in a sub-embodiment about 50 to about 200 nm, and in a sub-embodiment about 50 to about 150 nm, and in another sub-embodiment about 60 to about 120 nm. Preferably, the LNPs have a size from about 60 nm to about 100 nm. The average sizes (diameters) of the fully formed LNP, may be measured by dynamic light scattering on a Malvern Zetasizer. The LNP sample is diluted in phosphate buffered saline (PBS) so that the count rate is approximately 200-400 kcps. The data is presented as a weighted average of the intensity measure.
# The LNPs disclosed herein have a size (e.g. Z-average diameter) of about 1 to about 250 nm. In some embodiments, the LNPs have a size of about 10 to about 200 nm. In further embodiments, the LNPs have a size of about 20 to about 150 nm. In some embodiments, the LNPs have a size of about 50 to about 150 nm. In some embodiments, the LNPs have a size of about 50 to about 100 nm. In some embodiments, the LNPs have a size of about 50 to about 120 nm. In some embodiments, the LNPs have a size of about 60 to about 100 nm. In some embodiments, the LNPs have a size of about 75 to about 150 nm. In some embodiments, the LNPs have a size of about 75 to about 120 nm. In some embodiments, the LNPs have a size of about 75 to about 100 nm. Unless indicated otherwise, all sizes referred to herein are the average sizes (diameters) of the fully formed nanoparticles, as measured by dynamic light scattering on a Malvern Zetasizer. The nanoparticle sample is diluted in phosphate buffered saline (PBS) so that the count rate is approximately 200-400 kcps. The data is presented as a weighted-average of the intensity measure (Z-average diameter).
# Dynamic Light Scattering (“DLS”) is used to characterize the polydispersity index (“pdi”) and size of the LNPs of the present disclosure. DLS measures the scattering of light that results from subjecting a sample to a light source. PDI, as determined from DLS measurements, represents the distribution of particle size (around the mean particle size) in a population, with a perfectly uniform population having a PDI of zero.
# LNP compositions are analyzed for average particle size, polydispersity index (pdi), total RNA content, encapsulation efficiency of RNA, and zeta potential. LNP compositions may be further characterized by lipid analysis, AF4-MALS, NTA, and/or cryo-EM. Average particle size and polydispersity are measured by dynamic light scattering (DLS) using a Malvern Zetasizer DLS instrument. LNP samples were diluted with PBS buffer prior to being measured by DLS. Z-average diameter which is an intensity-based measurement of average particle size was reported along with number average diameter and pdi. A Malvern Zetasizer instrument is also used to measure the zeta potential of the LNP. Samples are diluted 1:17 (50 μL into 800 μL) in 0.1×PBS, pH 7.4 prior to measurement.
# [2] = test system: TTR; experiment: TTR editing in mouse liver by NGS after i.v. LNP delivery of Cas9 mRNA and sgRNA; type: in vivo; details: CD-1 female mice
# Procedure: Preparations of various LNP compositions were prepared with amine lipids. In assays for percent liver editing in mice, Cas9 mRNA and chemically modified sgRNA were formulated in LNPs, at either a 1:1 w/w ratio or a 1:2 w/w ratio. LNPs are formulated with a composition of a given ionizable lipid (e.g. an amine lipid), DSPC, cholesterol, and PEG-2k-DMG, with a 6.0 N:P ratio.
# (§1) CD-1 female mice, ranging from 6-10 weeks of age were used in each study. Animals were weighed and grouped according to body weight for preparing dosing solutions based on group average weight. LNPs were dosed via the lateral tail vein in a volume of 0.2 mL per animal (approximately 10 mL per kilogram body weight). The animals were periodically observed post dose for adverse effects for at least 24 hours post dose. Animals were euthanized at 6 or 7 days by exsanguination via cardiac puncture under isoflurane anesthesia. Blood was collected into serum separator tubes or into tubes containing buffered sodium citrate for plasma as described herein. For studies involving in vivo editing, liver tissue was collected from each animal for DNA extraction and analysis.
# Cohorts of mice were measured for liver editing by Next-Generation Sequencing (NGS).
# In brief, to quantitatively determine the efficiency of editing at the target location in the genome, genomic DNA was isolated and deep sequencing was utilized to identify the presence of insertions and deletions introduced by gene editing.
# PCR primers were designed around the target site (e.g., B2M), and the genomic area of interest was amplified. Additional PCR was performed according to the manufacturer's protocols (Illumina) to add the necessary chemistry for sequencing. The amplicons were sequenced on an Illumina MiSeq instrument. The reads were aligned to the […] after eliminating those having low quality scores. The resulting files containing the reads were mapped to the reference genome (BAM files), where reads that overlapped the target region of interest were selected and the number of wild type reads versus the number of reads which contain an insertion, substitution, or deletion was calculated.
# The editing percentage (e.g., the “editing efficiency” or “percent editing”) is defined as the total number of sequence reads with insertions or deletions over the total number of sequence reads, including wild type.
# CD-1 female mice were dosed i.v. at 0.1 mpk or 0.3 mpk. At 6 days post-dose, animals were sacrificed. For animals dosed with G282 targeting TTR, blood and the liver were collected and serum TTR and editing were measured. For animals dosed with G650 targeting B2M, liver was collected and editing was measured.
# [3] = test system: TTR; experiment: Transthyretin (TTR) ELISA analysis of mouse serum after LNP dosing; type: in vivo; details: for response vs control in vivo at 0.1 mg/kg: read-out: Serum TTR % TSS
# Procedure: as §1
# CD-1 female mice were dosed i.v. at 0.1 mpk or 0.3 mpk. […] For animals dosed with G282 targeting TTR, blood and the liver were collected and serum TTR and editing were measured. For animals dosed with G650 targeting B2M, liver was collected and editing was measured.
# Blood was collected and the serum was isolated as indicated. The total mouse TTR serum levels were determined using a Mouse Prealbumin (Transthyretin) ELISA Kit (Aviva Systems Biology, Cat. OKIA00111). Briefly, sera were serial diluted with kit sample diluent to a final dilution of 10,000-fold for 0.1 mpk dose and 2,500-fold for 0.3 mpk. This diluted sample was then added to the ELISA plates and the assay was then carried out according to directions.
# [4] = pKa measurement of unformulated amine lipid (fluorescence, method of Jayaraman et al.); type: physicochemical; details: 100 μM in 0.1 M phosphate buffer pH 4.5-9.0
# Procedure: The pKa of each amine lipid was determined according to the method in Jayaraman, et al. (Angewandte Chemie, 2012) with the following adaptations. […] Lipid was diluted to 100 μM in 0.1 M phosphate buffer (Boston Bioproducts) where the pH ranged from 4.5-9.0. Fluorescence intensity was measured using excitation and emission wavelengths of 321 nm and 448 nm.
# [5] = RNA encapsulation efficiency of LNP (Ribogreen fluorescence assay); type: physicochemical; details: N:P 6.0
# Procedure: A fluorescence-based assay (Ribogreen®, ThermoFisher Scientific) is used to determine total RNA concentration and free RNA. Encapsulation efficiency is calculated as (Total RNA−Free RNA)/Total RNA. LNP samples are diluted appropriately with 1× TE buffer containing 0.2% Triton-X 100 to determine total RNA or 1× TE buffer to determine free RNA. Standard curves are prepared by utilizing the starting RNA solution used to make the compositions and diluted in 1× TE buffer+/−0.2% Triton-X 100. Diluted RiboGreen® dye (according to the manufacturer's instructions) is then added to each of the standards and samples and allowed to incubate for approximately 10 minutes at room temperature, in the absence of light. A SpectraMax M5 Microplate Reader (Molecular Devices) is used to read the samples with excitation, auto cutoff and emission wavelengths set to 488 nm, 515 nm, and 525 nm respectively. Total RNA and free RNA are determined from the appropriate standard curves.
# Encapsulation efficiency is calculated as (Total RNA−Free RNA)/Total RNA. The same procedure may be used for determining the encapsulation efficiency of a DNA-based cargo component. For single-strand DNA Oligreen Dye may be used, and for double-strand DNA, Picogreen Dye.
# [6] = Table 14, Example 58: LNP, G282 1:1
# [7] = Example 58: 0.1 mpk i.v., 6 days post-dose, G282 1:1
# [8] = Table 16, Example 59: LNP, G282 1:1
# [9] = Example 59: 0.1 mpk i.v., 7 days post-dose, G282 1:1
# [10] = Table 18, Example 60: LNP, G502 1:2
# [11] = Example 60: 0.1 mpk i.v., 6 days post-dose, G502 1:2
# [12] = Mus musculus, iv, 144 h, Example 60: 0.1 mpk i.v., 6 days post-dose, G502 1:2
# [13] = Table 18, Example 60: LNP, G502 (TTR), sgRNA:Cas9 mRNA 1:2 w/w
# [14] = Table 20, Example 61: LNP, G282 1:1
# [15] = Example 61: 0.1 mpk i.v., 7 days post-dose, G282 1:1
# [16] = Table 26, Example 64: LNP, G282 1:1
# [17] = Example 64: Dose 0.03 mpk (table) i.v., 7 days post-dose, G282 1:1
smiles,measurement,setting,value
"CCCCCC/C=C\COC(=O)CCCCCCCN(CCO)CCCCCCCC(OCCCCCCCC)OCCCCCCCC [Compound 16, (Z)-non-2-en-1-yl 8-((8,8-bis(octyloxy)octyl)(2-hydroxyethyl)amino)octanoate]",Num Ave Size (nm),[1]; [6],66.66 nm
same,PDI,[1]; [6],0.132
same,Z-Ave Size (nm),[1]; [6],109.5 nm
same,Editing Mean % Indel,[2]; [7],35.2%
same,Serum TTR,[3]; [7],516 µg/mL
same,response vs control in vivo at 0.1 mg/kg,"[3]; Mus musculus, iv, 144 h, Example 58: 0.1 mpk i.v., 6 days post-dose, G282 1:1",52%
same,pKa,[4],6.34
same,Encapsulation (%),"[5]; Table 14, Example 58: LNP, G282 (TTR) 1:1 w/w",78%
"CCCCCCCCCOC(=O)CCCCCCCN(CCO)CCCCCCC(OCCCCCCC)OCCCCCCC [Compound 20, nonyl 8-((7,7-bis(heptyloxy)heptyl)(2-hydroxyethyl)amino)octanoate]",Num Ave Size (nm),[1]; [8],58.65 nm
same,PDI,[1]; [8],0.102
same,Z-Ave Size (nm),[1]; [8],84.49 nm
same,Editing Mean % Indel,[2]; [9],35.0%
same,Serum TTR,[3]; [9],210 µg/mL
same,response vs control in vivo at 0.1 mg/kg,"[3]; Mus musculus, iv, 168 h, Example 59: 0.1 mpk i.v., 7 days post-dose, G282 1:1",23%
same,pKa,[4],5.81
same,Encapsulation (%),"[5]; Table 16, Example 59: LNP, G282 (TTR) 1:1 w/w",83%
"CCCCCCCCCCC(=O)OCCCCCCN(CCO)CCCCCCCC(OCCCCCCCC)OCCCCCCCC [Compound 22, 6-((8,8-bis(octyloxy)octyl)(2-hydroxyethyl)amino)hexyl undecanoate]",Num Ave Size (nm),[1]; [10],66.68 nm
same,PDI,[1]; [10],0.029
same,Z-Ave Size (nm),[1]; [10],82.91 nm
same,Editing Mean % Indel,[2]; [11],45.6%
same,Serum TTR,[3]; [11],410 µg/mL
same,response vs control in vivo at 0.1 mg/kg,[3]; [12],29%
same,pKa,[4],6.18
same,Encapsulation (%),[5]; [13],98%
"CCCCCCCCOC(CCCCCCCN(CCO)CCCCCCCCOC(=O)CCCCCCCC)OCCCCCCCC [Compound 23, 8-((8,8-bis(octyloxy)octyl)(2-hydroxyethyl)amino)octyl nonanoate]",Num Ave Size (nm),[1]; [10],61.86 nm
same,PDI,[1]; [10],0.054
same,Z-Ave Size (nm),[1]; [10],79.04 nm
same,Editing Mean % Indel,[2]; [11],53.6%
same,Serum TTR,[3]; [11],307 µg/mL
same,response vs control in vivo at 0.1 mg/kg,[3]; [12],22%
same,pKa,[4],6.04
same,Encapsulation (%),[5]; [13],93%
"CCCCCCCCCOC(=O)CCCCCCCN(CCO)CCCCCCCCCC(CCCCCCCC)CCCCCCCC [Compound 26, nonyl 8-((2-hydroxyethyl)(10-octyloctadecyl)amino)octanoate, reference compound]",Num Ave Size (nm),[1]; [14],48.37 nm
same,PDI,[1]; [14],0.07
same,Z-Ave Size (nm),[1]; [14],63.25 nm
same,Editing Mean % Indel,[2]; [15],2.6%
same,Serum TTR,[3]; [15],979 µg/mL
same,response vs control in vivo at 0.1 mg/kg,"[3]; Mus musculus, iv, 168 h, Example 61: 0.1 mpk i.v., 7 days post-dose, G282 1:1",76%
same,pKa,[4],6.19
same,Encapsulation (%),"[5]; Table 20, Example 61: LNP, G282 (TTR) 1:1 w/w",99%
"CCCCCCCCCOC(=O)CCCCCCCN(CCCCCCC(OCCCCCCCC)OCCCCCCCC)CCCOC(=O)NC [Compound 40, nonyl 8-((7,7-bis(octyloxy)heptyl)(3-((methylcarbamoyl)oxy)propyl)amino)octanoate]",Num Ave Size (nm),[1]; [16],64 nm
same,PDI,[1]; [16],0.06
same,Z-Ave Size (nm),[1]; [16],83 nm
same,Editing Mean % Indel,[2]; [17],27.5%
same,Serum TTR,[3]; [17],417.0 µg/mL
same,inhibition in vivo at 0.03 mg/kg,"[3]; Mus musculus, iv, 168 h, Example 64: Dose 0.03 mpk (table) i.v., 7 days post-dose, G282 1:1, read-out: Serum TTR (% KD)",27.2%
same,pKa,[4],5.71
same,Encapsulation (%),"[5]; Table 26, Example 64: LNP, G282 (TTR) 1:1 w/w",96%
